Data: patent publication US10174016B2 (BAYER AKTIENGESELLSCHAFT, priority 2014, dated 2019)
pIC50: −log10 of the molar value. Like-named read-outs stand apart in the source and are kept apart here.

What was measured:
[1] = target: human P2X3 receptor (Homo sapiens (Human), UniProt P56373); assay: Intracellular calcium measurement (FLIPR, Fluo-4) of antagonist activity at human P2X3 receptors; format: cell-based; settings: read-out: hP2X3 IC50
Procedure, shortened: (§1)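 Antagonism quantified from peak calcium fluorescence (Fluo-4, FLIPR, 90 sec read) evoked by EC80 α,β-Me-ATP, after a 30 min, 37° C. compound pretreatment in 1% DMSO. Human P2X3- or P2X2/3-expressing cells used; triplicate means fitted for IC50, percent maximal inhibition and Hill coefficient.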

[2] = target: human P2X2/3 receptor (Homo sapiens (Human), UniProt P56373+Q9UBL9); assay: Intracellular calcium measurement (FLIPR, Fluo-4) of antagonist activity at human P2X2/3 receptors; format: cell-based; settings: human P2X2/3, FLIPR calcium assay, agonist α,β-Me-ATP; read-out: hP2X2/3 IC50
Procedure, shortened: as §1

[3] = human P2X3, FLIPR calcium assay, agonist α,β-Me-ATP

Sequence of human P2X3 receptor (P56373 whole entry): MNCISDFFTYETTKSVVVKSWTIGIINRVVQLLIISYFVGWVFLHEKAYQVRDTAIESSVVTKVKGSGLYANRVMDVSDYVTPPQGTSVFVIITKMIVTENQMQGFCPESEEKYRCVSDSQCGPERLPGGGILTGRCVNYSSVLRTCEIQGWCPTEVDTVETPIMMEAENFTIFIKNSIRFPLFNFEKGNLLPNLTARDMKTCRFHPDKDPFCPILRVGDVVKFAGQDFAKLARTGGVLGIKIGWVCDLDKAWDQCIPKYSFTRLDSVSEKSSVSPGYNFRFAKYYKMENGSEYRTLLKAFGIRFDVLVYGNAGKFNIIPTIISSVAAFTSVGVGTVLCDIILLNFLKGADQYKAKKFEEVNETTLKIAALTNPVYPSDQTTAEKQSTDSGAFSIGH
Sequence of human P2X2/3 receptor (P56373 whole entry): as above
Sequence of human P2X2/3 receptor (Q9UBL9 whole entry): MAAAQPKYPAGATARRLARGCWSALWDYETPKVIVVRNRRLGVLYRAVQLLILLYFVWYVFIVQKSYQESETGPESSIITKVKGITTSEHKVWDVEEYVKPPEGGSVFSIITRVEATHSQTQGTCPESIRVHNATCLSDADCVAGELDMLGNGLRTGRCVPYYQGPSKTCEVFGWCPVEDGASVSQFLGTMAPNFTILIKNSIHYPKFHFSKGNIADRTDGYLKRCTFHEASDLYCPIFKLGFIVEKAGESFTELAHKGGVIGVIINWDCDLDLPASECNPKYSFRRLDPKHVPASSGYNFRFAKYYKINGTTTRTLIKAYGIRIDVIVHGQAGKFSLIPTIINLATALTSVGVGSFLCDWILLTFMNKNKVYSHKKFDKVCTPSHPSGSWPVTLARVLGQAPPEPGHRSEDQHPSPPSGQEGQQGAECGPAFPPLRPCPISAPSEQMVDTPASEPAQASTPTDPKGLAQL

Question: With `Cc1ncc([C@@H](C)NC(=O)c2cc(OC3CCN(CC(F)(F)F)CC3)cc(-c3ncc(C)s3)c2)cn1` [Example 315, N-[(1R)-1-(2-methylpyrimidin-5-yl)ethyl]-3-(5-methyl-1,3-thiazol-2-yl)-5-{[1-(2,2,2-trifluoroethyl)piperidin-4-yl]oxy}benzamide] as the compound, how does the pIC50 [1, 3] read?
Answer: 8.10

Question: And the pIC50 [2]?
Answer: 6.80

Question: `Cc1ccc([C@@H](C)NC(=O)c2cc(OC[C@H]3CCOC3)cc(-c3ncc(Cl)s3)c2)nn1` [Example 316, 3-(5-chloro-1,3-thiazol-2-yl)-N-[(1R)-1-(6-methylpyridazin-3-yl)ethyl]-5-[(3S)-tetrahydrofuran-3-ylmethoxy]benzamide] was tested. Which pIC50 [1] did it give?
Answer: 7.68

Question: And the pIC50 [2]?
Answer: 6.60

Question: Which results are given for `Cc1ccc([C@@H](C)NC(=O)c2cc(O[C@@H]3CCOC3)cc(-c3ncc(Cl)s3)c2)nn1` [Example 317, 3-(5-chloro-1,3-thiazol-2-yl)-N-[(1R)-1-(6-methylpyridazin-3-yl)ethyl]-5-[(3R)-tetrahydrofuran-3-yloxy]benzamide]?
Answer: pIC50 [1, 3]: 7.35; pIC50 [2]: 6.02

Question: What does the source list for `C[C@@H](NC(=O)c1cc(O[C@@H]2CCOC2)cc(-c2ncc(Cl)s2)c1)c1ccc(C(F)(F)F)nn1` [Example 318, 3-(5-chloro-1,3-thiazol-2-yl)-5-[(3R)-tetrahydrofuran-3-yloxy]-N-{(1R)-1-[6-(trifluoromethyl)pyridazin-3-yl]ethyl}benzamide]?
Answer: pIC50 [1, 3]: 7.49; pIC50 [2]: 6.32

Question: How did the pIC50 [1, 3] turn out when `C[C@@H](NC(=O)c1cc(O[C@H]2CCOC2)cc(-c2ncc(Cl)s2)c1)c1ccc(C(F)(F)F)nn1` [Example 320, 3-(5-chloro-1,3-thiazol-2-yl)-5-[(3S)-tetrahydrofuran-3-yloxy]-N-{(1R)-1-[6-(trifluoromethyl)pyridazin-3-yl]ethyl}benzamide] was run?
Answer: 7.48

Question: And the pIC50 [2]?
Answer: 6.20

Question: With `Cc1ccc([C@@H](C)NC(=O)c2cc(O[C@H]3CCOC3)cc(-c3ncc(Cl)s3)c2)nn1` [Example 322, 3-(5-chloro-1,3-thiazol-2-yl)-N-[(1R)-1-(6-methylpyridazin-3-yl)ethyl]-5-[(3S)-tetrahydrofuran-3-yloxy]benzamide] as the compound, how does the pIC50 [1, 3] read?
Answer: 7.31

Question: And the pIC50 [2]?
Answer: 6.30

Question: `C[C@@H](NC(=O)c1cc(OC[C@H]2CCOC2)cc(-c2ncc(Cl)s2)c1)c1cnc(C(F)(F)F)nc1` [Example 323, 3-(5-chloro-1,3-thiazol-2-yl)-5-[(3S)-tetrahydrofuran-3-ylmethoxy]-N-{(1R)-1-[2-(trifluoromethyl)pyrimidin-5-yl]ethyl}benzamide] was tested. Which pIC50 [1, 3] did it give?
Answer: 7.60

Question: What about the pIC50 [2] of the same compound?
Answer: 6.39

Question: How did the pIC50 [1, 3] turn out when `Cc1ccc([C@@H](C)NC(=O)c2cc(OC3CCOCC3)cc(-c3ncc(Cl)s3)c2)nn1` [Example 325, 3-(5-chloro-1,3-thiazol-2-yl)-N-[(1R)-1-(6-methylpyridazin-3-yl)ethyl]-5-(tetrahydro-2H-pyran-4-yloxy)benzamide] was run?
Answer: 7.59

Question: What about the pIC50 [2] of the same compound?
Answer: 6.63

Question: With `C[C@@H](NC(=O)c1cc(OC2CCOCC2)cc(-c2ncc(Cl)s2)c1)c1ccc(C(F)(F)F)nn1` [Example 326, 3-(5-chloro-1,3-thiazol-2-yl)-5-(tetrahydro-2H-pyran-4-yloxy)-N-{(1R)-1-[6-(trifluoromethyl)pyridazin-3-yl]ethyl}benzamide] as the compound, how does the pIC50 [1, 3] read?
Answer: 7.68

Question: And the pIC50 [2]?
Answer: 6.42

Question: How did the pIC50 [1, 3] turn out when `Cc1cnc(-c2cc(OCC3(C)COC3)cc(C(=O)N[C@H](C)c3cnc(C(F)(F)F)nc3)c2)s1` [Example 327, 3-[(3-methyloxetan-3-yl)methoxy]-5-(5-methyl-1,3-thiazol-2-yl)-N-{(1R)-1-[2-(trifluoromethyl)pyrimidin-5-yl]ethyl}benzamide] was run?
Answer: 8.00

Question: And the pIC50 [2]?
Answer: 6.62

Question: How did the pIC50 [1] turn out when `Cc1cnc(-c2cc(OCC(C)(C)O)cc(C(=O)N[C@H](C)c3cnc(C(F)(F)F)nc3)c2)s1` [Example 328, 3-(2-hydroxy-2-methylpropoxy)-5-(5-methyl-1,3-thiazol-2-yl)-N-{(1R)-1-[2-(trifluoromethyl)pyrimidin-5-yl]ethyl}benzamide] was run?
Answer: 7.92

Question: And the pIC50 [2]?
Answer: 6.56

Question: How did the pIC50 [1, 3] turn out when `Cc1cnc(-c2cc(OC3C4COCC3CN(C(C)C)C4)cc(C(=O)N[C@H](C)c3cnc(C(F)(F)F)nc3)c2)s1` (stereo partly drawn) [Example 344, 3-[(7-isopropyl-3-oxa-7-azabicyclo[3.3.1]non-9-yl)oxy]-5-(5-methyl-1,3-thiazol-2-yl)-N-{(1R)-1-[2-(trifluoromethyl)pyrimidin-5-yl]ethyl}benzamide] was run?
Answer: 7.47

Question: And the pIC50 [2]?
Answer: 6.01

Question: With `COC(=O)N1CC2COCC(C1)C2Oc1cc(C(=O)N[C@H](C)c2cnc(C(F)(F)F)nc2)cc(-c2ncc(C)s2)c1` (stereo partly drawn) [Example 345, methyl 9-[3-(5-methyl-1,3-thiazol-2-yl)-5-({(1R)-1-[2-(trifluoromethyl)pyrimidin-5-yl]ethyl}carbamoyl)phenoxy]-3-oxa-7-azabicycle[3.3.1]nonane-7-carboxylate] as the compound, how does the pIC50 [1, 3] read?
Answer: 8.15

Question: And the pIC50 [2]?
Answer: 7.00

Question: What does the source list for `Cc1cnc(-c2cc(OC[C@H]3CNCCO3)cc(C(=O)N[C@H](C)c3cnc(C(F)(F)F)nc3)c2)s1` [Example 347, 3-(5-Methyl-1,3-thiazol-2-yl)-5-[(2R)-morpholin-2-ylmethoxy]-N-{(1R)-1-[2-(trifluoromethyl)pyrimidin-5-yl]ethyl}benzamide]?
Answer: pIC50 [1, 3]: 8.05; pIC50 [2]: 5.82

Question: How did the pIC50 [1, 3] turn out when `Cc1cnc(-c2cc(OC[C@@H]3CNCCO3)cc(C(=O)N[C@H](C)c3cnc(C(F)(F)F)nc3)c2)s1` [Example 350, 3-(5-Methyl-1,3-thiazol-2-yl)-5-[(2S)-morpholin-2-ylmethoxy]-N-{(1R)-1-[2-(trifluoromethyl)pyrimidin-5-yl]ethyl}benzamide] was run?
Answer: 7.85

Question: And the pIC50 [2]?
Answer: 5.93

Question: `Cc1cnc(-c2cc(OC[C@@H]3CN(C)CCO3)cc(C(=O)N[C@H](C)c3cnc(C(F)(F)F)nc3)c2)s1` [Example 351, 3-{[(2S)-4-methylmorpholin-2-yl]methoxy}-5-(5-methyl-1,3-thiazol-2-yl)-N-{(1R)-1-[2-(trifluoromethyl)pyrimidin-5-yl]ethyl}benzamide] was tested. Which pIC50 [1, 3] did it give?
Answer: 7.80

Question: What about the pIC50 [2] of the same compound?
Answer: 6.16

Question: With `Cc1cnc(-c2cc(OCC3CNCCO3)cc(C(=O)N[C@H](C)c3cnc(C(F)(F)F)nc3)c2)s1` (stereo partly drawn) [Example 352, 3-(5-Methyl-1,3-thiazol-2-yl)-5-[morpholin-2-ylmethoxy]-N-{(1R)-1-[2-(trifluoromethyl)pyrimidin-5-yl]ethyl}benzamide] as the compound, how does the pIC50 [1, 3] read?
Answer: 7.74

Question: And the pIC50 [2]?
Answer: 5.94

Question: With `Cc1cnc(-c2cc(OCC3CN(C)CCO3)cc(C(=O)N[C@H](C)c3cnc(C(F)(F)F)nc3)c2)s1` (stereo partly drawn) [Example 353, 3-{[4-methylmorpholin-2-yl]methoxy}-5-(5-methyl-1,3-thiazol-2-yl)-N-{(1R)-1-[2-(trifluoromethyl)pyrimidin-5-yl]ethyl}benzamide] as the compound, how does the pIC50 [1, 3] read?
Answer: 8.15

Question: What about the pIC50 [2] of the same compound?
Answer: 6.37

Question: How did the pIC50 [1, 3] turn out when `Cc1cnc(-c2cc(OC[C@@]3(F)CCCNC3)cc(C(=O)N[C@H](C)c3cnc(C(F)(F)F)nc3)c2)s1` [Example 354] was run?
Answer: 7.60

Question: And the pIC50 [2]?
Answer: 5.99

Question: `Cc1cnc(-c2cc(OCC3(F)CNC3)cc(C(=O)N[C@H](C)c3cnc(C(F)(F)F)nc3)c2)s1` [Example 358, 3-[(3-fluoroazetidin-3-yl)methoxy]-5-(5-methyl-1,3-thiazol-2-yl)-N-{(1R)-1-[2-(trifluoromethyl)pyrimidin-5-yl]ethyl}benzamide] was tested. Which pIC50 [1, 3] did it give?
Answer: 7.24

Question: And the pIC50 [2]?
Answer: 5.84

Question: Which results are given for `Cc1cnc(-c2cc(OCC3CNCCC3(F)F)cc(C(=O)N[C@H](C)c3cnc(C(F)(F)F)nc3)c2)s1` (stereo partly drawn) [Example 359, 3-{[4,4-difluoropiperidin-3-yl]methoxy}-5-(5-methyl-1,3-thiazol-2-yl)-N-{(1R)-1-[2-(trifluoromethyl)pyrimidin-5-yl]ethyl}benzamide]?
Answer: pIC50 [1, 3]: 8.22; pIC50 [2]: 6.70

Question: How did the pIC50 [1, 3] turn out when `Cc1cnc(-c2cc(OC[C@H]3COCCN3C)cc(C(=O)N[C@H](C)c3cnc(C(F)(F)F)nc3)c2)s1` [Example 360] was run?
Answer: 8.00

Question: And the pIC50 [2]?
Answer: 6.34

Question: What does the source list for `Cc1cnc(-c2cc(OC[C@@H]3COCCN3C)cc(C(=O)N[C@H](C)c3ccc(C(F)(F)F)nc3)c2)s1` [Example 361, 3-{[(3S)-4-methylmorpholin-3-yl]methoxy}-5-(5-methyl-1,3-thiazol-2-yl)-N-{(1R)-1-[6-(trifluoromethyl)pyridin-3-yl]ethyl}benzamide]?
Answer: pIC50 [1, 3]: 7.85; pIC50 [2]: 5.90

Question: Which results are given for `Cc1cnc(-c2cc(OC[C@@H]3COCCN3C)cc(C(=O)N[C@H](C)c3cnc(C(F)(F)F)nc3)c2)s1` [Example 362]?
Answer: pIC50 [1, 3]: 8.10; pIC50 [2]: 5.99

Question: What does the source list for `Cc1cnc(-c2cc(OC[C@H]3COCCN3C)cc(C(=O)N[C@H](C)c3ccc(C(F)(F)F)nc3)c2)s1` [Example 363, 3-{[(3R)-4-methylmorpholin-3-yl]methoxy}-5-(5-methyl-1,3-thiazol-2-yl)-N-{(1R)-1-[6-(trifluoromethyl)pyridin-3-yl]ethyl}benzamide]?
Answer: pIC50 [1]: 7.92; pIC50 [2]: 6.14

Question: `Cc1cnc(-c2cc(OCC3CC(F)CN3C)cc(C(=O)N[C@H](C)c3cnc(C(F)(F)F)nc3)c2)s1` (stereo partly drawn) [Example 364, 3-{[4-fluoro-1-methylpyrrolidin-2-yl]methoxy}-5-(5-methyl-1,3-thiazol-2-yl)-N-{(1R)-1-[2-(trifluoromethyl)pyrimidin-5-yl]ethyl}benzamide] was tested. Which pIC50 [1, 3] did it give?
Answer: 7.80

Question: What about the pIC50 [2] of the same compound?
Answer: 6.03

Question: What does the source list for `Cc1cnc(-c2cc(OCC3CC(F)CN3C)cc(C(=O)N[C@H](C)c3ccc(C(F)(F)F)nc3)c2)s1` (stereo partly drawn) [Example 365, 3-{[4-fluoro-1-methylpyrrolidin-2-yl]methoxy}-5-(5-methyl-1,3-thiazol-2-yl)-N-{(1R)-1-[6-(trifluoromethyl)pyridin-3-yl]ethyl}benzamide]?
Answer: pIC50 [1, 3]: 7.68; pIC50 [2]: 5.98

Question: How did the pIC50 [1, 3] turn out when `Cc1cnc(-c2cc(OC[C@H]3CN(C)CCO3)cc(C(=O)N[C@H](C)c3ccc(C(F)(F)F)nc3)c2)s1` [Example 366, 3-{[(2R)-4-methylmorpholin-2-yl]methoxyl}-5-(5-methyl-1,3-thiazol-2-yl)-N-{(1R)-1-[6-(trifluoromethyl)pyridin-3-yl]ethyl}benzamide] was run?
Answer: 7.74

Question: And the pIC50 [2]?
Answer: 6.01
